In US20020142008A1, “Immunogenic pili presenting foreign peptides, their production and use” (priority 2000, published 2002):
Ends that are not written are not given here.

These sequences were tested on homologous piliated Escherichia coli challenge strains (renal and/or bladder colonization) (assay: Intravesicular BALB/c experimental model of pyelonephritis and cystitis, pilin A synthetic peptide conjugate vaccines). Settings: BALB/c mice, thyroglobulin and BSA conjugates ~200 ug i.m. day 0 and 14 in incomplete Freund's adjuvant; bladder inoculation 10^8 CFU homologous piliated strain; renal/bladder colonization at 48 hours; protection = >90% of cohort no growth and none >500 CFU per 0.1 gram.
Format: in vivo
Method: The intravesicular BALB/c experimental model of pyelonephritis and cystitis, as originally described by O'Hanley, was employed to evaluate the protective capacity of structural pilin synthetic peptide conjugate vaccines to prevent subsequent renal and/or bladder colonization by homologous piliated strains at 48 hours after bacterial bladder inoculation. Cohorts of 20 mice per group were vaccinated via intramuscular administration on two occasions with the experimental thyroglobulin and bovine serum albumin conjugate pilin A vaccines (i.e., day 0 and day 14). Each intramuscular dose of experimental vaccine consisted of ^˜200 ug in 100 ul saline emulsified in 100 ul incomplete Freund's adjuvant. Control vaccines consisted of thyroglobulin and bovine serum albumin emulsified in saline and incomplete Freund's adjuvant. These control vaccines were administered in similar fashion and schedule as the experimental vaccines. Challenge for pilin A vaccinated mice entailed bladder inoculation of 10^8 CFU of an Escherichia coli strain that expressed homologous pili. In contrast, the cohort size for control animals was 5 per challenge strain. The table below summarizes the challenge strategy.
Protection against subsequent renal colonization and bladder colonization by the challenge strain was defined by >90% of the experimental animals in a cohort (i.e., 18 of 20 vaccinated experimental mice) having no bacterial growth from aliquots of homogenized whole right kidney and aliquots of homogenized whole bladders and none of the experimental animals having heavy bacterial growth from the challenge strain in renal or bladder specimens (viz., the absence of ++++ colonization density or >500 CFU of the challenge strain per 0.1 gram of renal or bladder tissue) compared to heavy growth of the challenge strain in both renal and bladder specimens (++++ colonization density or >500 CFU per 0.1 gm of renal or bladder tissue) by the challenge strain in >80% of control animals (i.e. >4 of 5 control mice).
For “NGGTVHFKGEVVN (also: conjugated to thyroglobulin or BSA) [F1C structural pilin synthetic peptide conjugated to thyroglobulin or bovine serum albumin]”, the “Homologous Protection” value was “Yes”.
For “NFKQLQGGAAKKG (also: conjugated to thyroglobulin or BSA) [F71 pilin A synthetic peptide conjugated to thyroglobulin or bovine serum albumin]”, the “Homologous Protection” value was “Yes”.
With “NFKKAAGGGGAKT (also: conjugated to thyroglobulin or BSA) [F72 pilin A synthetic peptide conjugated to thyroglobulin or bovine serum albumin]” the “Homologous Protection” value was “Yes”.
For “TTVTVNGGTVHF (also: conjugated to thyroglobulin or BSA) [F1 structural pilin synthetic peptide conjugated to thyroglobulin or bovine serum albumin]”, the “Homologous Protection” value was “Yes”.
For “TTVNGGTVH (also: conjugated to carrier protein) [F9 pilin A synthetic peptide conjugate vaccine]”, the “Homologous Protection” value was “Yes”.
“IPQGQGKVTFNGTV (also: conjugated to carrier protein) [F11 pilin A synthetic peptide conjugate vaccine]” was tested, and the “Homologous Protection” value was “Yes”.
“NFKKAATPGGAAKT (also: conjugated to thyroglobulin or BSA) [F9 pilin A synthetic peptide conjugated to thyroglobulin or bovine serum albumin]” was tested, and the “Homologous Protection” value was “Yes”.
“PQGQGKVT (also: conjugated to carrier protein) [F72 and F13 pilin A synthetic peptide conjugate vaccine]” was tested, and the “Homologous Protection” value was “Yes”.
For “PQGQGEVA (also: conjugated to thyroglobulin or BSA) [F71 pilin A synthetic peptide conjugated to thyroglobulin or bovine serum albumin]”, the “Homologous Protection” value was “Yes”.
“IPEGQGKVT (also: conjugated to thyroglobulin or BSA) [F12 pilin A synthetic peptide conjugated to thyroglobulin or bovine serum albumin]” was tested, and the “Homologous Protection” value was “Yes”.
In the case of “PQGQGEVT (also: conjugated to thyroglobulin or BSA) [F71 pilin A synthetic peptide conjugated to thyroglobulin or bovine serum albumin]”, the “Homologous Protection” value is reported as “Yes”.

The sequences below were run on experimental pyelonephritis (assay: BALB/c murine model of experimental pyelonephritis, F13 peptide conjugate vaccines). Settings: BALB/c mice, serial parenteral administration of vaccine, intravesicular challenge.
Format: in vivo
For “PQGQGKVT (also: conjugated to carrier protein) [F72 and F13 pilin A synthetic peptide conjugate vaccine]”, the “protection in experimental pyelonephritis” value was “protective”.
In the case of “AKFGGMGAKKG (also: conjugated to carrier protein) [F13 structural pilin peptide conjugate vaccine]”, the “protection in experimental pyelonephritis” value is reported as “protective”.
